Where two headings read alike, the source gives them in different places.
What was measured:
A549 = experiment: High-throughput calcein AM cytotoxicity assay, A549; format: cell-based, human; conditions: A549 cells
Description: (§1) Standard errors are depicted with error bars.

MCF7 = experiment: High-throughput calcein AM cytotoxicity assay, MCF7; format: cell-based, human; conditions: MCF7 cells
Description: as §1

SF-268 = experiment: cells; format: cell-based, human; conditions: SF-268 cells
Description: (§2) In the assay, live cells were distinguished by the presence of a ubiquitous intracellular enzymatic activity which converts the non-fluorescent cell-permeable molecule calcein AM to the intensely fluorescent molecule calcein, which is retained within live cells. The IC50 value for each library member represents at least six replicates of dose-response experiments conducted over five concentrations using two-fold dilutions. […] Standard errors are depicted with error bars. Numerical values and corresponding error values can be found in Table 4. Du145: […]; MCF7: human breast carcinoma; HCT-116: human colon carcinoma, Hep3B: human liver carcinoma; SF-268: human CNS glioblastoma; SK-OV-3: human ovary adenocarcinoma; NCI-H460: human lung carcinoma; A549: human lung adenocarcinoma; NCI/ADR-RES: human breast carcinoma; NmuMG: mouse mammary normal epithelial.
(§3) Cell Culture: All cell lines except NmuMG were maintained in RPMI 1640 medium from InVitrogen (Cat No. 11875-085) supplemented with 10% w/v fetal bovine serum (FBS) from ICN (Cat No. 2916154) and penicillin-streptomycin (PS) (100 U/mL and 100 μg/mL) from InVitrogen (Cat No. 15140-122). NmuMG cells were maintained in DMEM medium from InVitrogen (Cat No. 11965-084) supplemented with 10% w/v fetal bovine serum (FBS) from ICN (Cat No. 2916154), 10 μg/ml insulin (InVitrogen Cat No 12585-014), and penicillin-streptomycin (PS) (100 U/mL and 100 μg/mL) from InVitrogen (Cat No. 15140-122). Cells were harvested by trypsinization using 0.25% w/v trypsin and 0.1% w/v EDTA from InVitrogen (Cat No. 15-050-057) and then counted in a hemocytometer in duplicate with better than 10% agreement in field counts. Cells were plated at a cell density of 10,000-15,000 cells/well of each Corning Costar 96-well black tissue culture treated microtiter plate (Fisher Cat No. 07-200-627). Cells were grown for 1 h at 37° C., with 5% CO2 in a humidified incubator to allow cell attachment to occur before compound addition.
(§4) Library Member Handling and Preparation for Cytotoxicity Assays: Library members were stored at −20° C. under dessicating conditions before the assay. Library member stocks (100×) were prepared in Corning Costar polypropylene 96-well V-bottom polypropylene microtiter plates (Fisher Cat No. 07-200-695). Five serial 1:2 dilutions were made with anhydrous DMSO at 100× the final concentration used in the assay.
(§5) Library Member Addition: The library member-containing plates were diluted 1:10 with complete cell culture media. The 10× stocks (10 μL) were added to the attached cells using a Biomek FX liquid handler (Beckman-Coulter). Library member stocks (10 μL) were added to 90 μL of cells in each plate to insure full mixing of stocks with culture media using a Beckman FX liquid handler with 96-well head.
(§6) Determination of Cytotoxicity: Cells were incubated with the library members for 72 h before fluorescence reading. Test plates were removed from the incubator and washed 1× in sterile PBS to remove serum containing calcium esterases. Calcein AM reagent (30 μL, […]) was added and the cells were incubated for 30 min at 37° C. Plates were read for emission using a fluorescein filter (excitation 485 nm, emission 535 nm).
(§7) IC50 Calculation: For each library member, at least six dose response experiments were conducted. […] To calculate IC50, percent inhibitions were plotted as a function of log [concentration] and then fit to a four-parameter logistic model that allowed for a variable Hill slope using XLfit 4.1.
(§8) Cytotoxicity Assays. All cell lines except NmuMG were maintained in RPMI 1640 medium supplemented with 10% w/v fetal bovine serum (FBS) and penicillin-streptomycin (PS) (100 U/mL and 100 μg/mL).

SK-OV-3 = experiment: cells; format: cell-based, human; conditions: SK-OV-3 cells
Description: as §2, §3, §4, §5, §6, §7, §8

NCI/ADR-RES = experiment: cells; format: cell-based, human; conditions: NCI/ADR-RES cells
Description: as §2, §3, §4, §5, §6, §7, §8

NCI-H460 = experiment: High-throughput calcein AM cytotoxicity assay, NCI-H460; format: cell-based, human; conditions: NCI-H460 cells
Description: as §1

HCT-116 = experiment: High-throughput calcein AM cytotoxicity assay, HCT-116; format: cell-based, human; conditions: HCT-116 cells
Description: as §1

Du145 = experiment: High-throughput calcein AM cytotoxicity assay, Du145; format: cell-based, human; conditions: Du145 cells
Description: as §1

Hep3B = experiment: High-throughput calcein AM cytotoxicity assay, Hep3B; format: cell-based, human; conditions: Hep 3B cells
Description: as §1

NmuMG = experiment: cells; format: cell-based, mouse
Description: as §2, §3, §4, §5, §6, §7, §8

[1] = NmuMG mouse mammary normal epithelial control line, read-out: IC50, NmuMG
[2] = NmuMG cells (mouse mammary normal epithelial control line), read-out: IC50

Structure (SMILES)	IC50 (A549; read-out: IC50, A549)	IC50 (MCF7; read-out: IC50, MCF7)	IC50 (SF-268; read-out: IC50, SF-268)	IC50 (SK-OV-3; read-out: IC50, SK-OV-3)	IC50 (NCI/ADR-RES; read-out: IC50, NCI/ADR-RES)	IC50 (NCI-H460; read-out: IC50, NCI-H460)	IC50 (HCT-116; read-out: IC50, HCT-116)	IC50 (Du145; read-out: IC50, Du145)	IC50 (Hep3B; read-out: IC50, Hep 3B)	IC50 (NmuMG; [1])	IC50 (NmuMG; [2])	IC50 (A549; read-out: IC50)	IC50 (MCF7; read-out: IC50)	IC50 (SF-268; read-out: IC50)	IC50 (SK-OV-3; read-out: IC50)	IC50 (NCI/ADR-RES; read-out: IC50)	IC50 (NCI-H460; read-out: IC50)	IC50 (HCT-116; read-out: IC50)	IC50 (Du145; read-out: IC50)	IC50 (Hep3B; read-out: IC50)
CON(C1CCC2(C)C(CCC3C2CCC2(C)C(C4=CC(=O)OC4)CCC32O)C1)C1OCC(O)C(O)C1O [5α, L-riboside]	> 25 µM	> 25 µM	> 25 µM	> 25 µM	> 25 µM	> 25 µM	> 25 µM	> 25 µM	> 25 µM	> 25 µM	–	–	–	–	–	–	–	–	–	–
CON([C@H]1CC[C@@]2(C)[C@H](CC[C@@H]3[C@@H]2CC[C@]2(C)[C@@H](C4=CC(=O)OC4)CC[C@]32O)C1)[C@@H]1OC[C@@H](O)[C@@H](O)[C@H]1O [6β, D-riboside]	1.02 µM	3 µM	1.8 µM	1.7 µM	0.66 µM	0.9 µM	1.3 µM	0.72 µM	0.9 µM	0.48 µM	–	–	–	–	–	–	–	–	–	–
CON([C@H]1CC[C@@]2(C)[C@H](CC[C@@H]3[C@@H]2CC[C@]2(C)[C@@H](C4=CC(=O)OC4)CC[C@]32O)C1)[C@@H]1O[C@H](CO)[C@H](O)[C@@H](O)[C@@H]1O [29β, D-idoside]	0.37 µM	0.44 µM	1.3 µM	1.5 µM	1.5 µM	1.3 µM	2.3 µM	1.3 µM	0.3 µM	> 25 µM	–	–	–	–	–	–	–	–	–	–
CON(C1CCC2(C)C(CCC3C2CCC2(C)C(C4=CC(=O)OC4)CCC32O)C1)C1OC(C)C(O)C(O)C1O [8α, D-fucoside]	> 25 µM	> 25 µM	> 25 µM	> 25 µM	> 25 µM	> 25 µM	> 25 µM	> 25 µM	> 25 µM	> 25 µM	–	–	–	–	–	–	–	–	–	–
CON([C@H]1CC[C@@]2(C)[C@H](CC[C@@H]3[C@@H]2CC[C@]2(C)[C@@H](C4=CC(=O)OC4)CC[C@]32O)C1)[C@@H]1O[C@H](CO)[C@@H](O)[C@@H](O)[C@H]1O [18β, D-alloside]	2 µM	6.8 µM	3.5 µM	6.4 µM	0.8 µM	3.2 µM	6 µM	2.2 µM	3.3 µM	3.1 µM	–	–	–	–	–	–	–	–	–	–
CON([C@H]1CC[C@@]2(C)[C@H](CC[C@@H]3[C@@H]2CC[C@]2(C)[C@@H](C4=CC(=O)OC4)CC[C@]32O)C1)[C@@H]1O[C@H](C)[C@H](O)[C@H](O)[C@H]1O [8β, D-fucoside]	1.8 µM	11 µM	10 µM	5 µM	1.5 µM	1.3 µM	7 µM	3.9 µM	4.9 µM	> 25 µM	–	–	–	–	–	–	–	–	–	–
CON([C@H]1CC[C@@]2(C)[C@H](CC[C@@H]3[C@@H]2CC[C@]2(C)[C@@H](C4=CC(=O)OC4)CC[C@]32O)C1)[C@H]1O[C@@H](CO)[C@H](O)[C@H](O)[C@@H]1O [17β, L-alloside]	0.24 µM	0.9 µM	0.4 µM	0.7 µM	0.16 µM	0.69 µM	0.5 µM	0.79 µM	0.8 µM	0.33 µM	–	–	–	–	–	–	–	–	–	–
CON(C1CCC2(C)C(CCC3C2CCC2(C)C(C4=CC(=O)OC4)CCC32O)C1)C1OC(CO)C(O)C(O)C1O [28α, L-idoside]	> 25 µM	> 25 µM	> 25 µM	> 25 µM	> 25 µM	> 25 µM	> 25 µM	> 25 µM	> 25 µM	–	> 25 µM	–	–	–	–	–	–	–	–	–
CON(C1CCC2(C)C(CCC3C2CCC2(C)C(C4=CC(=O)OC4)CCC32O)C1)C1OC(CO)C(O)C(O)C1O [25α, D-guloside]	> 25 µM	> 25 µM	> 25 µM	> 25 µM	> 25 µM	> 25 µM	> 25 µM	> 25 µM	> 25 µM	–	> 25 µM	–	–	–	–	–	–	–	–	–
CON(C1CCC2(C)C(CCC3C2CCC2(C)C(C4=CC(=O)OC4)CCC32O)C1)C1OC(CO)C(O)C(O)C1O [26α, L-mannoside]	> 25 µM	> 25 µM	> 25 µM	> 25 µM	> 25 µM	> 25 µM	> 25 µM	> 25 µM	> 25 µM	–	> 25 µM	–	–	–	–	–	–	–	–	–
CON(C1CCC2(C)C(CCC3C2CCC2(C)C(C4=CC(=O)OC4)CCC32O)C1)C1OC(C(=O)O)C(O)C(O)C1O [38β, D-galacturonoside]	2.2 µM	5 µM	2.2 µM	3.1 µM	1.6 µM	1.4 µM	2.7 µM	1.9 µM	2.1 µM	> 25 µM	–	–	–	–	–	–	–	–	–	–
CON(C1CCC2(C)C(CCC3C2CCC2(C)C(C4=CC(=O)OC4)CCC32O)C1)C1OC(CO)C(O)C(O)C1O [19α, L-altroside]	> 25 µM	> 25 µM	> 25 µM	> 25 µM	> 25 µM	> 25 µM	> 25 µM	> 25 µM	> 25 µM	> 25 µM	–	–	–	–	–	–	–	–	–	–
CON(C1CCC2(C)C(CCC3C2CCC2(C)C(C4=CC(=O)OC4)CCC32O)C1)C1OC(C)C(O)C(O)C1O [11β, 6-deoxy-D-glucoside]	1.2 µM	1.9 µM	2.5 µM	4 µM	0.95 µM	1 µM	2.3 µM	6 µM	4.4 µM	> 25 µM	–	–	–	–	–	–	–	–	–	–
CON([C@H]1CC[C@@]2(C)[C@H](CC[C@@H]3[C@@H]2CC[C@]2(C)[C@@H](C4=CC(=O)OC4)CC[C@]32O)C1)[C@@H]1O[C@H](CO)[C@@H](O)C[C@H]1O [10β, 3-deoxy-D-glucoside]	1.6 µM	0.46 µM	0.77 µM	2.5 µM	0.44 µM	1.6 µM	1.8 µM	0.8 µM	1.7 µM	0.94 µM	–	–	–	–	–	–	–	–	–	–
CON(C1CCC2(C)C(CCC3C2CCC2(C)C(C4=CC(=O)OC4)CCC32O)C1)C1OC(CO)C(O)C(O)C1NC(C)=O [34α, N-acetyl-D-galactosaminoside]	–	–	–	–	–	–	–	–	–	–	> 25 µM	> 25 µM	> 25 µM	> 25 µM	> 25 µM	> 25 µM	> 25 µM	> 25 µM	> 25 µM	> 25 µM
